Laboratory results published in US9416141B2 (University of Washington through its Center for …, priority 2012, dated 2016).
Counter-ions that a name gives are not always drawn. Like-named read-outs stand apart in the source and are kept apart here.

Tested on: hair cells
Test: Hair cell toxicity assay in zebrafish (neomycin-induced hair cell death, DASPEI staining of neuromasts)
Type: in vivo
Details: for EC50: zebrafish larvae 5-7 dpf, 1 h pre-treatment, then 200 micromolar neomycin + test compound 30 min, read-out: HC50 (concentration that would produce 50% hair cell survival); for Emax at 2.8 µM: maximum observed @ 2.8 μM test compound; for Emax at 25 µM: maximum observed @ 25 μM test compound; for Emax at 8.3 µM: maximum observed @ 8.3 μM test compound
Protocol: Zebrafish are bred and newly fertilized embryos are collected the week prior and raised at 28.5° C. in petri dishes containing embryo medium. Newly hatched free-swimming larvae are fed paramecium and dry fish food at 4 days post fertilization (dpf) with lights on. For treatment, fish 5-7 dpf are transferred to cell culture baskets and place within a well of a 6-well plate containing 7 milliliters of 1× embryo medium. Typically, tests are done with ten fish per basket but work well with up to 50 fish. All treatment and wash volumes are 7 milliliters. • 1. Fish are pre-treated with test compound for 1 hour. […] Treat with 200 micromolar neomycin (neomycin sulfate, Sigma, St. Louis, Mo., catalog #N1142)+test compound for 30 minutes. • 3. Rinse fish briefly 4 times in embryo medium and add 700 μl of 0.05% DASPEI (2-{4-(dimethylamino)styryl}-N-ethylpyridinium iodide, Molecular Probes, Eugene, Oreg.) and allowed to stain for 15 minutes. • 4. Rinse twice in embryo medium and add 350 μl MS222 (0.55 ug/ml final concentration, 3-aminobenzoic acid ethyl ester, methansulfoneate salt, Sigma, St. Louis, Mo.) to anesthetize. • 5. View with epifluorescence dissecting microscope equipped with a DAPSEI filter set (excitation […], Chroma Technologies, Brattleboro, Vt.). For assessment of initial dose response curves, fish are transferred to wide depression slide with wide-bore pipette. The DASPEI staining of ten neuromasts (SO1, SO2, IO1, IO2, IO3, IO4, M2, MI1, MI2 and O2) on one side of an animal are evaluated. Each neuromast is scored for presence of DASPEI staining (score=2), reduced DASPEI staining (score=1) or absence of DASPEI staining (score=0). Total scores for an animal are tabulated, to give a composite score that can range from 0 to 20. Average scores and standard deviations are calculated for animals in each treatment group. Scores are normalized to control group (vehicle only, no drug, no neomycin) and expressed as % hair cell survival. HCmax is the maximum protection (hair cell survival) observed. • 6. If at least 50% hair cells survive, the HC50 (concentration that would produce 50% hair cell survival) is calculated as a linear extrapolation from the nearest concentrations of protective drug that produce hair cell survival below and above 50%. If less than 50% hair cells survive, the HC50 is not determined. 1× embryo media (standard lab EM): • 1 mM MgSO4, • 0.15 mM KH2PO4, • 0.05 mM Na2HPO4, • 1 mM CaCl2, • 0.5 mM KCl • 15 mM NaCl • 0.7 mM NaHCO3

[1] = Danio rerio, 200 micromolar neomycin, read-out: Max HC Protection (HCmax, % hair cell survival)

Structure (SMILES)	Emax at 2.8 µM [1] [%]	EC50 (Danio rerio) [nM]	Emax at 25 µM [1] [%]	further results
NC(=O)c1c(NC(=O)Nc2ccc(Cl)cc2)sc2c1CC1CCC2N1 (racemic) [Example 124, (+/−)-2-[3-(4-chlorophenyl)ureido]-5,6,7,8-tetrahydro-4H-5,8-epiminocyclohepta[b]thiophene-3-carboxamide hydrochloride]				EC50: < 1000 nM
CN1C(C)(C)Cc2c(sc(NC(=O)Nc3ccc(Cl)cc3)c2C(N)=O)C1(C)C [Example 120, 2-[3-(4-chlorophenyl)ureido]-5,5,6,7,7-pentamethyl-4,5,6,7-tetrahydrothieno[2,3-c]pyridine-3-carboxamide hydrochloride]	81	1000 to 10000		
CN(C)C(=O)CCC[N+]1(C)CCc2c(sc(NC(=O)Nc3ccc(Cl)cc3)c2C(N)=O)C1 (centres unmarked) [Example 165, 3-Carbamoyl-2-[3-(4-chlorophenyl)ureido]-6-[4-(dimethylamino)-4-oxobutyl]-6-methyl-4,5,6,7-tetrahydrothieno[2,3-c]pyridin-6-ium trifluoroacetate]	52	1000 to 10000		
CCN1CCc2c(sc(Nc3c(Nc4ccc(Cl)cc4)c(=O)c3=O)c2C(N)=O)C1 [Example 109, 2-({2-[(4-chlorophenyl)amino]-3,4-dioxocyclobut-1-en-1-yl}amino)-6-ethyl-4,5,6,7-tetrahydrothieno[2,3-c]pyridine-3-carboxamide hydrochloride]			22	
CCN1CCc2c(sc(NC(=O)NCc3cccc(Cl)c3)c2C(N)=O)C1 [Example 75, 2-[3-(3-Chlorobenzyl)ureido]-6-ethyl-4,5,6,7-tetrahydrothieno[2,3-c]pyridine-3-carboxamide hydrochloride]			24	
CC(C1CCC1)[N+]1(C)CCc2c(sc(NC(=O)Nc3ccc(Cl)cc3)c2C(N)=O)C1 (racemic) [Example 203, (+/−)-3-Carbamoyl-2-[3-(4-chlorophenyl)ureido]-6-(1-cyclobutylethyl)-6-methyl-4,5,6,7-tetrahydrothieno[2,3-c]pyridin-6-ium chloride]	75	< 1000		
CCOC(=O)CCC[N+]1(C)CCc2c(sc(NC(=O)Nc3ccc(Cl)cc3)c2C(N)=O)C1 (centres unmarked) [Example 161, 3-Carbamoyl-2-[3-(4-chlorophenyl)ureido]-6-(4-ethoxy-4-oxobutyl)-6-methyl-4,5,6,7-tetrahydrothieno[2,3-c]pyridin-6-ium iodide]	87	< 1000		
CCN1CCc2c(sc(NC(=O)Nc3cn(C)c4ccccc34)c2C(N)=O)C1 [Example 82, 6-Ethyl-2-[3-(1-methyl-1H-indol-3-yl)ureido]-4,5,6,7-tetrahydrothieno[2,3-c]pyridine-3-carboxamide hydrochloride]			23	
CCN1CCc2c(sc(NC(=O)Nc3ccc(C#N)cc3)c2C(N)=O)C1 [Example 67, 2-[3-(4-Cyanophenyl)ureido]-6-ethyl-4,5,6,7-tetrahydrothieno[2,3-c]pyridine-3-carboxamide hydrochloride]				Emax at 8.3 µM [1]: 20%
CN(C)C(=O)CC[N+]1(C)CCc2c(sc(NC(=O)Nc3ccc(Cl)cc3)c2C(N)=O)C1 (centres unmarked) [Example 194, 3-Carbamoyl-2-[3-(4-chlorophenyl)ureido]-6-[3-(dimethylamino)-3-oxopropyl]-6-methyl-4,5,6,7-tetrahydrothieno[2,3-c]pyridin-6-ium chloride]	36			
CC(C)(C)OC(=O)C1CC(N2CCc3c(sc(NC(=O)Nc4ccc(Cl)cc4)c3C(N)=O)C2)C1 (centres unmarked) [Example 22, tert-Butyl 3-{3-carbamoyl-2-[3-(4-chlorophenyl)ureido]-4,5-dihydrothieno[2,3-c]pyridin-6(7H)-yl}cyclobutanecarboxylate]	22			
CC(C)(C)OC(=O)CCCC[N+]1(C)CCc2c(sc(NC(=O)Nc3ccc(Cl)cc3)c2C(N)=O)C1 (centres unmarked) [Example 155, 6-(5-tert-Butoxy-5-oxopentyl)-3-carbamoyl-2-[3-(4-chlorophenyl)ureido]-6-methyl-4,5,6,7-tetrahydrothieno[2,3-c]pyridin-6-ium iodide]	75	< 1000		
CCN1CCc2c(sc(NC(=O)NCc3ccc(Cl)cc3)c2C(N)=O)C1 [Example 76, 2-[3-(4-Chlorobenzyl)ureido]-6-ethyl-4,5,6,7-tetrahydrothieno[2,3-c]pyridine-3-carboxamide hydrochloride]			40	
C[N+]12CCCCC1c1sc(NC(=O)Nc3ccc(Cl)cc3)c(C(N)=O)c1CC2 (racemic) [Example 178, (+/−)-3-Carbamoyl-2-[3-(4-chlorophenyl)ureido]-6-methyl-4,5,6,7,8,9,10,10a-octahydrothieno[2,3-a]quinolizin-6-ium chloride]		1000 to 10000	102	
CCN1CCc2c(sc(NC=O)c2C(N)=O)C1 [Example 108, 6-ethyl-2-formamido-4,5,6,7-tetrahydrothieno[2,3-c]pyridine-3-carboxamide hydrochloride]				Emax at 0.9 µM (Danio rerio, maximum observed @ 0.9 μM test compound, 200 micromolar neomycin, read-out: Max HC Protection (HCmax, % hair cell survival)): 13%
CCN1CCc2c(sc(NC(=O)Nc3ccc4ccccc4c3)c2C(N)=O)C1 [Example 223, 6-ethyl-2-{[(naphthalen-2-yl)carbamoyl]amino}-4H,5H,6H,7H-thieno[2,3-c]pyridine-3-carboxamide]		1000 to 10000	104	
CCN1CCc2c(sc(NC(=O)Nc3ccc(Cl)s3)c2C(N)=O)C1 [Example 94, 2-[3-(5-Chlorothiophen-2-yl)ureido]-6-ethyl-4,5,6,7-tetrahydrothieno[2,3-c]pyridine-3-carboxamide hydrochloride]		> 10000	69	
NC(=O)c1c(NC(=O)Nc2ccc3ccccc3c2)sc2c1CCN(CCCCO)C2 [Example 37, 6-(4-Hydroxybutyl)-2-[3-(naphthalen-2-yl)ureido]-4,5,6,7-tetrahydrothieno[2,3-c]pyridine-3-carboxamide hydrochloride]		1000 to 10000	105	
CCN1Cc2sc(NC(=O)Nc3ccc(Cl)cc3)c(C(N)=O)c2C1 [Example 28, 2-[3-(4-Chlorophenyl)ureido]-5-ethyl-5,6-dihydro-4H-thieno[2,3-c]pyrrole-3-carboxamide hydrochloride]		1000 to 10000		Emax at 8.3 µM [1]: 58%
CC(C)(C)OC(=O)NCCCN1CCc2c(sc(NC(=O)Nc3ccc(Cl)cc3)c2C(N)=O)C1 [Example 205, tert-butyl N-[3-(3-carbamoyl-2-{[(4-chlorophenyl)carbamoyl]amino}-4H,5H,6H,7H-thieno[2,3-c]pyridin-6-yl)propyl]carbamate]		1000 to 10000		Emax at 6.3 µM (Danio rerio, maximum observed @ 6.3 μM test compound, 200 micromolar neomycin, read-out: Max HC Protection (HCmax, % hair cell survival)): 81%
CCN1CCc2c(sc(NC(=O)Nc3ccc(F)cc3)c2C(N)=O)C1 [Example 66, 6-Ethyl-2-[3-(4-fluorophenyl)ureido]-4,5,6,7-tetrahydrothieno[2,3-c]pyridine-3-carboxamide hydrochloride]		> 10000	57	
NC(=O)c1c(NC(=O)Nc2ccc(Cl)cc2)sc2c1CCN(CCCNC(=O)c1ccccc1)C2 [Example 212, 2-{[(4-chlorophenyl)carbamoyl]amino}-6-[3-(phenylformamido)propyl]-4H,5H,6H,7H-thieno[2,3-c]pyridine-3-carboxamide]		1000 to 10000	103	
CN(C)C1CCc2c(sc(NC(=O)Nc3ccc(Cl)cc3)c2C(N)=O)C1 (centres unmarked) [Example 42, 2-[3-(4-Chlorophenyl)ureido]-6-(dimethylamino)-4,5,6,7-tetrahydrobenzo[b]thiophene-3-carboxamide hydrochloride]		1000 to 10000	90	
CC[N+]1(C)CCc2c(sc(NC(=O)Nc3ccc(C(=O)c4ccccc4)cc3)c2C(N)=O)C1 (centres unmarked) [Example 168, 2-[3-(4-Benzoylphenyl)ureido]-3-carbamoyl-6-ethyl-6-methyl-4,5,6,7-tetrahydrothieno[2,3-c]pyridin-6-ium iodide]	20			
